Data from US20220362153A1, “COMPOSITIONS AND METHODS FOR PULMONARY SURFACTANT-BIOMIMETIC NANOPARTICLES” (priority 2019, published 2022).

Test system: SH13 H7N9 virus
Design: species or system mice
Conditions: mouse, in vivo

**Q.** How did the “protection from lethal SH13 H7N9 challenge” value turn out when poly IC was run?
**A.** did not provide any benefit over the vaccine alone
